Laboratory results as given in patent US20250108099A1, “Ovomucoid for use in a method of managing blood coagulation” (Solution Shop AG, priority 2022, published 2025).

Experiments:
Assay type in all cases: biochemical
Thrombin generation [1] = test: Thrombin generation (calibrated automated thrombogram) in defibrinated normal pooled plasma, absence of fibrinogen; conditions: 0.5 pM TF, ovomucoid/Trasylol 50-350 U/ml, Cyklokapron 1-8 mg/ml
Description: (§1) This pilot bioequivalence study aims at investigating the effect of duck egg ovomucoid on the clotting system and assessed its activity against the known anti-thrombolytic agents (Trasylol® “aprotinin” and Cyklokapron” “transamic acid”) by means of the calibrated automated thrombogram (CAT). The CAT method is a functional sensitive assay which detects any hyper- or hypocoagulability in the clotting system, disorders in platelet function and follows up therapy with anti-haemophilia supplements, anticoagulants and antithrombotics.
In a fibrinolytic patient fibrin is unstable.
(§2) An optimal concentration of procoagulant phospholipids was used (4 μM). Two concentrations of tissue factor (TF) were added, 5 pM to study the classical extrinsic pathway and 0.5 pM to explore a pathway in which also the antihaemophilic factors (Factor VIII and IX) play a role.

plasmin = biological target: T1, plasmin (Homo sapiens, UniProt P00747); test: Plasmin inhibition in buffered plasmin solution with chromogenic substrate S-2251 (Example 2); conditions: 37° C.
T1 construct: a buffered plasmin solution was used
T1 sequence (P00747 97-580 limits assumed): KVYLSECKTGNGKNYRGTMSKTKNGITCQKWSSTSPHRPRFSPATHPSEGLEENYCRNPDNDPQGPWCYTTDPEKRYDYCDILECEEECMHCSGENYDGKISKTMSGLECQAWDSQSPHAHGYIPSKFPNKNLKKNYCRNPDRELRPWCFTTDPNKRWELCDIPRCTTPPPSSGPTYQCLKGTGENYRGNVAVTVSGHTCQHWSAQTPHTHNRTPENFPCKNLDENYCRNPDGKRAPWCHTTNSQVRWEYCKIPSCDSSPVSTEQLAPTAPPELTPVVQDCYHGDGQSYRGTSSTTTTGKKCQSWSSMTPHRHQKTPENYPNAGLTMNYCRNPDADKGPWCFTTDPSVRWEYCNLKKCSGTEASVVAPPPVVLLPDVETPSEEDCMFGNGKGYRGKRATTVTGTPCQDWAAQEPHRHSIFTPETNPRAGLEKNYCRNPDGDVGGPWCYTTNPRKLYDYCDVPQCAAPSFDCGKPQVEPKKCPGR
T1 sequence (P00747 581-810 limits assumed): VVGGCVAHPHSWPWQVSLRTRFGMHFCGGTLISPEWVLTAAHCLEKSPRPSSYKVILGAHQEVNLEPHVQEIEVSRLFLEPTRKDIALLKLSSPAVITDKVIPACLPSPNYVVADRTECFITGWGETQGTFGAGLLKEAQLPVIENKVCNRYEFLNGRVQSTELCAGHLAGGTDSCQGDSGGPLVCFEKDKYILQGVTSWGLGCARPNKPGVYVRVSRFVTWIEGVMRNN
Procedure: In order to analyse plasmin inhibition a buffered plasmin solution was used. The solution was incubated with duck egg ovomucoid or cyklocapron as a control. The solutions were incubated at 37° C. and the chromogenic plasmin substrate S-2251 was added and plasmin activity was measured.

Thrombin generation [2] = test: Thrombin generation (calibrated automated thrombogram) in normal non-defibrinated plasma, presence of endogenous fibrinogen; conditions: for effect on extrinsic-thrombin generation: extrinsic (5 pM TF), ovomucoid/Trasylol 50-350 U/ml, Cyklokapron 1-8 mg; for effect on thrombin generation / coagulation system: low TF concentration (0.5 pM)
Description: as §1, §2
Normally fibrin (-ogen) is present during thrombin generation, therefore the above experiments were carried out in normal non-defibrinated plasma. Extrinsic-thrombin generation was conducted in normal plasma spiked with increasing amounts of duck egg ovomucoid (50-350 U/ml) and compared to Trasylol (50-350 U/ml) and to Cyklokapron (1-8 mg).

Row | Compound | effect on thrombin generation (Thrombin generation [1]) | inhibitory effect on plasmin (plasmin) | effect on extrinsic-thrombin generation (Thrombin generation [2]) | effect on thrombin generation / coagulation system (Thrombin generation [2])
1 | NC[C@H]1CC[C@H](C(=O)O)CC1 [Cyklokapron, transamic acid] | increased the thrombin generation in a dose-dependent manner | inhibitory effect on plasmin | hardly any activity | procoagulant
2 | aprotinin [Trasylol] | inhibited thrombin generation dose-dependently | – | hardly any activity | dose-dependently anticoagulant
